# Results from patent US6620828B2, “Thiazole compounds and pharmaceutical compositions for inhibiting protein kinases and methods for their use” (Agouron Pharmaceuticals, Inc., priority 1999, dated 2003).
# System: human umbilical vein endothelial cells (HUVEC)
# Experiment: HUVEC proliferation assay
# Format: cell-based
# Settings: Homo sapiens, HUVEC; for inhibition at 0.05 µM: Inhibition of HUVEC Proliferation, 50 nM, crude combinatorial urea library, read-out: Inhibition @ 50 nM; for inhibition at 0.15 µM: Table I screening results, 150 nM, crude combinatorial amide library
# Method in brief: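 Exponentially growing HUVEC were serum-starved 24 h (F12K + 1% FBS), pre-treated 1 h with compound (0.1% DMSO final), then stimulated with 6 ng/ml VEGF. Proliferation was read 72 h later by MTT reduction (A595). IC50 came from seven 0.5-log concentrations in triplicate; screens gave % inhibition relative to VEGF-only and starved wells.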
SMILES,inhibition at 0.05 µM,inhibition at 0.15 µM
COc1cccc(C(=O)Nc2cc(-c3noc(-c4sc(NC(=O)NCCNc5ccccc5)nc4N)n3)c(F)cc2F)c1,89%,–
COc1cccc(C(=O)Nc2cc(-c3noc(-c4sc(NC(=O)NCC(C)O)nc4N)n3)c(F)cc2F)c1 (centres unmarked),78%,–
COc1cccc(C(=O)Nc2cc(-c3noc(-c4sc(NC(=O)NCC5CCC=CO5)nc4N)n3)c(F)cc2F)c1 (centres unmarked),93%,–
COc1cccc(C(=O)Nc2cc(-c3noc(-c4sc(NC(=O)NC5CC(C)(C)NC(C)(C)C5)nc4N)n3)c(F)cc2F)c1,99%,–
COc1cccc(C(=O)Nc2cc(-c3noc(-c4sc(NC(=O)NCCc5ccc(N)cc5)nc4N)n3)c(F)cc2F)c1,88%,–
COc1cccc(C(=O)Nc2cc(-c3noc(-c4sc(NC(=O)NCCCN5CCOCC5)nc4N)n3)c(F)cc2F)c1,80%,–
COc1cccc(C(=O)Nc2cc(-c3noc(-c4sc(NC(=O)NCCC(C)C)nc4N)n3)c(F)cc2F)c1,96%,–
COc1cccc(C(=O)Nc2cc(-c3noc(-c4sc(NC(=O)NCCC5CCCN5C)nc4N)n3)c(F)cc2F)c1 (centres unmarked),104%,–
COc1cccc(C(=O)Nc2cc(-c3noc(-c4sc(NC(=O)NCCN5CCCCC5)nc4N)n3)c(F)cc2F)c1,78%,–
COc1cccc(C(=O)Nc2cc(-c3noc(-c4sc(NC(=O)NCc5ccccc5)nc4N)n3)c(F)cc2F)c1,61%,–
COc1cccc(C(=O)Nc2cc(-c3noc(-c4sc(NC(=O)NCCCN5CCCCC5C)nc4N)n3)c(F)cc2F)c1 (centres unmarked),96%,–
COc1cccc(C(=O)Nc2cc(-c3noc(-c4sc(NC(=O)NC5CCN(Cc6ccccc6)CC5)nc4N)n3)c(F)cc2F)c1,82%,–
COc1cccc(C(=O)Nc2cc(-c3noc(-c4sc(NC(=O)NCC(C)(C)CN(C)C)nc4N)n3)c(F)cc2F)c1,77%,–
COc1cccc(C(=O)Nc2cc(-c3noc(-c4sc(NC(=O)NCCC(=O)O)nc4N)n3)c(F)cc2F)c1,56%,–
COCCNC(=O)Nc1nc(N)c(-c2nc(-c3cc(NC(=O)c4cccc(OC)c4)c(F)cc3F)no2)s1,53%,–
COc1cccc(C(=O)Nc2cc(-c3noc(-c4sc(NC(=O)NCC(F)(F)F)nc4N)n3)c(F)cc2F)c1,89%,–
COc1cccc(C(=O)Nc2cc(-c3noc(-c4sc(NC(=O)NCCCn5ccnc5)nc4N)n3)c(F)cc2F)c1,87%,–
COc1cccc(C(=O)Nc2cc(-c3noc(-c4sc(NC(=O)NCCc5ccc(S(N)(=O)=O)cc5)nc4N)n3)c(F)cc2F)c1,83%,–
CCCCN(CC)CCNC(=O)Nc1nc(N)c(-c2nc(-c3cc(NC(=O)c4cccc(OC)c4)c(F)cc3F)no2)s1,42%,–
COc1cccc(C(=O)Nc2cc(-c3noc(-c4sc(NC(=O)NCc5ccc(N(C)C)cc5)nc4N)n3)c(F)cc2F)c1,48%,–
COc1cccc(C(=O)Nc2cc(-c3noc(-c4sc(NC(=O)NCP(=O)(O)O)nc4N)n3)c(F)cc2F)c1,4%,–
COc1cccc(C(=O)Nc2cc(-c3noc(-c4sc(NC(=O)NC(CO)CO)nc4N)n3)c(F)cc2F)c1,31%,–
COc1cccc(C(=O)Nc2cc(-c3noc(-c4sc(NC(=O)NCc5ccc(N)cc5)nc4N)n3)c(F)cc2F)c1,82%,–
COc1cccc(C(=O)Nc2cc(-c3noc(-c4sc(NC(=O)N[C@@H](CO)C(N)=O)nc4N)n3)c(F)cc2F)c1,59%,–

SMILES,inhibition at 0.05 µM,inhibition at 0.15 µM
COc1cccc(C(=O)Nc2cc(-c3noc(-c4sc(NC(=O)NCCNC(C)=O)nc4N)n3)c(F)cc2F)c1,75%,–
COc1cccc(C(=O)Nc2cc(-c3noc(-c4sc(NC(=O)N[C@H](CO)Cc5c[nH]cn5)nc4N)n3)c(F)cc2F)c1,77%,–
CCC(CO)NC(=O)Nc1nc(N)c(-c2nc(-c3cc(NC(=O)c4cccc(OC)c4)c(F)cc3F)no2)s1 (centres unmarked),81%,–
COc1cccc(C(=O)Nc2cc(-c3noc(-c4sc(NC(=O)NCCCC(=O)O)nc4N)n3)c(F)cc2F)c1,96%,–
COc1cccc(C(=O)Nc2cc(-c3noc(-c4sc(NC(=O)NCCN5CCNCC5)nc4N)n3)c(F)cc2F)c1,76%,–
COc1cccc(C(=O)Nc2cc(-c3noc(-c4sc(NC(=O)NCCc5ccccn5)nc4N)n3)c(F)cc2F)c1,78%,–
COc1cccc(C(=O)Nc2cc(-c3noc(-c4sc(NC(=O)NCCN5CCCC5)nc4N)n3)c(F)cc2F)c1,79%,–
COCC(C)NC(=O)Nc1nc(N)c(-c2nc(-c3cc(NC(=O)c4cccc(OC)c4)c(F)cc3F)no2)s1 (centres unmarked),80%,–
COc1cccc(C(=O)Nc2cc(-c3noc(-c4sc(NC(=O)NCC(C)(O)CO)nc4N)n3)c(F)cc2F)c1 (centres unmarked),45%,–
COc1cccc(C(=O)Nc2cc(-c3noc(-c4sc(NC(=O)NC(C)CO)nc4N)n3)c(F)cc2F)c1 (centres unmarked),77%,–
COc1cccc(C(=O)Nc2cc(-c3noc(-c4sc(NC(=O)NCCN(C)C)nc4N)n3)c(F)cc2F)c1,69%,–
COc1cccc(C(=O)Nc2cc(-c3noc(-c4sc(NC(=O)NCC(C)(C)N)nc4N)n3)c(F)cc2F)c1,14%,–
CCCCN(CCCC)CCCNC(=O)Nc1nc(N)c(-c2nc(-c3cc(NC(=O)c4cccc(OC)c4)c(F)cc3F)no2)s1,80%,–
COc1cccc(C(=O)Nc2cc(-c3noc(-c4sc(NC(=O)NCCN(C(C)C)C(C)C)nc4N)n3)c(F)cc2F)c1,-6%,–
COc1cccc(C(=O)Nc2cc(-c3noc(-c4sc(NC(=O)NCCCN5CCN(C)CC5)nc4N)n3)c(F)cc2F)c1,72%,–
COc1cccc(C(=O)Nc2cc(-c3noc(-c4sc(NC(=O)NCCN5CCNC5=O)nc4N)n3)c(F)cc2F)c1,-2%,–
COc1cccc(C(=O)Nc2cc(-c3noc(-c4sc(NC(=O)NCCC(C)=O)nc4N)n3)c(F)cc2F)c1,6%,–
CCN(CC)CCCC(C)NC(=O)Nc1nc(N)c(-c2nc(-c3cc(NC(=O)c4cccc(OC)c4)c(F)cc3F)no2)s1 (centres unmarked),7%,–
COc1cccc(C(=O)Nc2cc(-c3noc(-c4sc(NC(=O)NCCCCN(C)C)nc4N)n3)c(F)cc2F)c1,-3%,–
COc1cccc(C(=O)Nc2cc(-c3noc(-c4sc(NC(=O)NCCCCCCN(C)C)nc4N)n3)c(F)cc2F)c1,-6%,–
COc1cccc(C(=O)Nc2cc(-c3noc(-c4sc(NC(=O)NCC(C)N(C)C)nc4N)n3)c(F)cc2F)c1 (centres unmarked),-25%,–
COc1cccc(C(=O)Nc2cc(-c3noc(-c4sc(NC(=O)NCCCN5CCCCCC5)nc4N)n3)c(F)cc2F)c1,21%,–
COc1cccc(C(=O)Nc2cc(-c3noc(-c4sc(NC(=O)NCCCN5CCCCC5)nc4N)n3)c(F)cc2F)c1,-20%,–
COc1cccc(C(=O)Nc2cc(-c3noc(-c4sc(NC(=O)NC5CCS(=O)(=O)C5)nc4N)n3)c(F)cc2F)c1 (centres unmarked),-7%,–

SMILES,inhibition at 0.05 µM,inhibition at 0.15 µM
COc1cccc(C(=O)Nc2cc(-c3noc(-c4sc(NC(=O)NCCC(=O)NCC(=O)O)nc4N)n3)c(F)cc2F)c1,49%,–
COc1cccc(C(=O)Nc2cc(-c3noc(-c4sc(NC(=O)NCC#N)nc4N)n3)c(F)cc2F)c1,12%,–
COc1cccc(C(=O)Nc2cc(-c3noc(-c4sc(NC(=O)NCC(=O)NO)nc4N)n3)c(F)cc2F)c1,-12%,–
COc1cccc(C(=O)Nc2cc(-c3noc(-c4sc(NC(=O)NCC(=O)O)nc4N)n3)c(F)cc2F)c1,73%,–
COc1cccc(C(=O)Nc2cc(-c3noc(-c4sc(NC(=O)NCCS(=O)(=O)O)nc4N)n3)c(F)cc2F)c1,88%,–
CCC(O)CNC(=O)Nc1nc(N)c(-c2nc(-c3cc(NC(=O)c4cccc(OC)c4)c(F)cc3F)no2)s1 (centres unmarked),93%,–
COc1cccc(C(=O)Nc2cc(-c3noc(-c4sc(NC(=O)NCC(C)(C)CO)nc4N)n3)c(F)cc2F)c1,104%,–
CCN1CC(NC(=O)Nc2nc(N)c(-c3nc(-c4cc(NC(=O)c5cccc(OC)c5)c(F)cc4F)no3)s2)CN1CC,92%,–
CCN(CCNC(=O)Nc1nc(N)c(-c2nc(-c3cc(NC(=O)c4cccc(OC)c4)c(F)cc3F)no2)s1)c1cccc(C)c1,67%,–
COc1cccc(C(=O)Nc2cc(-c3noc(-c4sc(NC(=O)NCC(=N)N)nc4N)n3)c(F)cc2F)c1,65%,–
COc1cccc(C(=O)Nc2cc(-c3noc(-c4sc(NC(=O)NCC(C)(C)C)nc4N)n3)c(F)cc2F)c1,55%,–
COc1cccc(C(=O)Nc2cc(-c3noc(-c4sc(NC(=O)NC(=O)NCC5(O)CCCCC5)nc4N)n3)c(F)cc2F)c1,99%,–
COc1cccc(C(=O)Nc2cc(-c3noc(-c4sc(NC(=O)NCCc5c[nH]cn5)nc4N)n3)c(F)cc2F)c1,72%,–
COc1cccc(C(=O)Nc2cc(-c3noc(-c4sc(NC(=O)NCS(=O)(=O)O)nc4N)n3)c(F)cc2F)c1,30%,–
COc1cccc(C(=O)Nc2cc(-c3noc(-c4sc(NC(=O)NCCCN(C)c5ccccc5)nc4N)n3)c(F)cc2F)c1,84%,–
COc1cccc(C(=O)Nc2cc(-c3noc(-c4sc(NC(=O)NCc5ccc(S(N)(=O)=O)cc5)nc4N)n3)c(F)cc2F)c1,82%,–
COc1cccc(C(=O)Nc2cc(-c3noc(-c4sc(NC(=O)NCCCN(CCO)CCO)nc4N)n3)c(F)cc2F)c1,84%,–
COc1cccc(C(=O)Nc2cc(-c3noc(-c4sc(NC(=O)NCCc5ccncc5)nc4N)n3)c(F)cc2F)c1,99%,–
COc1cc(Nc2nc(N)c(-c3nc(-c4cccc(NC(=O)Cc5ccc(Cl)c(Cl)c5)c4)cs3)s2)cc(OC)c1OC,–,-5%
COc1cc(Nc2nc(N)c(-c3nc(-c4cccc(NC(=O)Cc5ccc(Cl)cc5Cl)c4)cs3)s2)cc(OC)c1OC,–,-20%
CCc1ccc(-c2ccc(C(=O)Nc3cccc(-c4csc(-c5sc(Nc6cc(OC)c(OC)c(OC)c6)nc5N)n4)c3)cc2)cc1,–,-7%
COc1cc(Nc2nc(N)c(-c3nc(-c4cccc(NC(=O)c5ccc6[nH]nnc6c5)c4)cs3)s2)cc(OC)c1OC,–,-8%
COc1cc(Nc2nc(N)c(-c3nc(-c4cccc(NC(=O)c5ccncc5)c4)cs3)s2)cc(OC)c1OC,–,1%
